This is an account of results in patent US20050245508A1, “Treatment of malignant gliomas with TGF-beta inhibitors” (SCIOS, Inc., priority 2003, published 2005).

Molecules are shown by their SMILES.

A short description of series [1]: Solubility in drinking water. The format is physicochemical.
The subject of the next series is LN-308 targets. As to the kind of experiment: 51Cr release lysis assay, PBL or T cells precultured with irradiated glioma cells. The conditions noted are these: preexposure 1 μM during coculture with irradiated glioma cells, 4 h 51Cr release, FIG. 3A. Format: cell-based, human. On the procedure: FIG. 3. Modulation of allogeneic anti-glioma immune responses by Compound No. 79 involves TGF-β antagonism. A. The lytic activity against LN-308 targets of PBL (squares) or purified T cells (triangles) preincubated with irradiated LN-308 cells in the absence (open symbols) or presence (filled symbols) of Compound No. 79 (1 μM) was determined in ^51Cr release assays. B-D. PBL were cultured in the absence (left) or presence (right) of irradiated LN-308 cells for 5 days. The cultures contained Compound No. 79 (1 μM) (filled bars) or not (open bars). Subsequently these effector cells were cocultured for 24 h with fresh non-irradiated LN-308 cells in the absence of Compound No. 79. The release of IFN-γ (B), TNF-α (C) or IL-10 (D) was assessed by Elispot assay. Data are expressed as cytokine-producing cells per 5×10^5 effector cells (n=3, *p<0.05, **p<0.01, t-test, effect of Compound No. 79). […]
HLA-A2-mismatched PBL or T cells (107/25 cm2 flask) were cocultured with 106 irradiated (30 Gy) glioma cells for 5 days. […] The maximum 51Cr release was determined by addition of NP40 (1%). After 4 h the supernatants were transferred to a Luma-PlateTM-96 (Packard, Dreieich, Germany) and measured. The percentage of 51Cr release was calculated as follows: 100×([experimental release−spontaneous release]/[maximum release−spontaneous release]).

The test system of the next series is SMA-560 glioma cells. As to the kind of experiment: Cytotoxicity, LDH release and trypan blue dye exclusion. The format is cell-based, murine. The conditions noted are these: up to 1 μM for 72 h. The method, then:
The glioma cells and CCL64 cells were maintained in DMEM supplemented with 2 mM L-glutamine (Gibco Life Technologies, Paisley, UK), 10% FCS (Biochrom KG, Berlin, Germany) and penicillin (100 IU/ml)/streptomycin (100 μg/ml) (Gibco). Growth and viability of the glioma cells was examined by crystal violet, LDH release (Roche, Mannheim, Germany) and trypan blue dye exclusion assays. To assess clonogenicity, 500 SMA-560 cells were seeded into 6 well plates (9.4 cm^2). After formation of visible cell formations, colonies>20 cells were counted.
For orientation: LDH leaks from cells whose membrane has failed.

For another series, the system named is Smad2 phosphorylation. As to the kind of experiment: Immunoblot of p-Smad2 and total Smad2/3 in glioma cells. The format is cell-based. The method, then: FIG. 2. Abrogation of autocrine TGF-β signaling in glioma cells by Compound No. 79. A. The cells were seeded at 10^4 cells/well in 96 well plates and cultured in the absence or presence of Compound No. 79 for 48 h in serum-free medium. Growth was assessed by [methyl-^3H]-thymidine incorporation at 48 h (*p<0.05, t-test). B. Lysates from untreated glioma cells or cells preexposed to Compound No. 79 (1 μM) for 24 h or exposed to TGF-b2 (5 ng/ml) for 1 h or both were assessed for the levels of p-Smad2 or total Smad2/3. Note that the antibodies were specific to p-Smad2 and total Smad 2 and 3, respectively.
The levels of phosphorylated Smad2 (p-Smad2) protein levels were analyzed by immunoblot using 20 μg of protein per lane on a 12% acrylamide gel. After transfer to a PVDF membrane (Amersham, Braunschweig, Germany), the blots were blocked in PBS containing 5% skim milk and 0.05% Tween 20, and incubated overnight at 4° C. with p-Smad2 antibody (2 μg/ml). Visualization of protein bands was accomplished using horseradish peroxidase-coupled secondary antibody (Sigma) and enhanced chemiluminescence (Amersham). Total Smad2/3 levels were assessed using a specific Smad2/3 antibody (Becton-Dickinson).
Background: A western blot detects proteins with antibodies after separation by electrophoresis.

Series [2] relates to CCL64 mink lung epithelial cells. Description: CCL64 TGF-β bioassay (growth, crystal violet). The format is cell-based. On the procedure:
FIG. 1. Prevention of the growth inhibitory effects of recombinant and glioma-derived TGF-b1 and TGF-b2 by a TGF-β inhibitor (Compound No. 79 in Table 2). A. CCL64 cells were exposed to human recombinant TGF-b1 (filled symbols) or TGF-b2 (open symbols) (10 ng/ml) in the absence or presence of increasing concentrations of Comopund No. 79 for 72 h. B. CCL64 cells were maintained in serum-free medium containing heat-activated glioma cell SN (1:1) in the absence or presence of Compound No. 79 for 72 h. Growth was assessed by crystal violet assay (mean and SD, n=3).
The levels of bioactive TGF-β were determined using the CCL64 bioassay. Briefly, […] CCL64 cells were adhered to 96 well plates for 24 h, full medium was replaced by serum-free medium, and the cells were exposed to recombinant TGF-β1/2 or glioma cell culture supernatants diluted in serum-free medium for 72 h. Growth was assessed by crystal violet staining at 72 h. Glioma cell supernatants were harvested from confluent cultures maintained for 48 h in serum-free medium and heat-treated (5 min, 85° C.) to activate latent TGF-β (Leitlein et al., J. Immunol., 166:7238-7243 (2001)).

What is called EC50 is the concentration at which the effect is half-maximal. Consider `Fc1ccc(Cl)cc1-c1nc(Nc2ccncc2)c2nccnc2n1` [Compound No. 79], for which the solubility entry in series [1] is on record as “relatively poor solubility”. The “lytic activity of HLA-A2-mismatched PBL or purified T cells” value in the series with LN-308 targets is “significantly enhanced”. Also, in the series on SMA-560 glioma cells, the cytotoxic effects entry was “neiter LDH release nor trypan blue dye exclusion assays revealed cytotoxic effects”. Besides, the “total cellular Smad2/3 levels” value in the series with Smad2 phosphorylation (1 μM 24 h, FIG. 2B) is on record as “without altering”. In addition, the “Smad2 phosphorylation by endogenous or exogenous TGF-β” value with Smad2 phosphorylation (1 μM 24 h preexposure, TGF-β2 5 ng/ml 1 h, FIG. 2B) is given as “interfered with Smad2 phosphorylation”. For the same compound, the “pSmad phosphorylation signal in untreated glioma cells” value in the series with Smad2 phosphorylation (no exogenous TGF-β) is given as “abolished”. Besides, the EC50 in series [2] (TGF-β1 or TGF-β2 10 ng/ml, 72 h, FIG. 1A, read-out: EC50 of rescue of TGF-β-mediated inhibition of growth) is around 30 nM. In addition, the “growth inhibition mediated by glioma cell supernatants” value in series [2] (diluted serum-free SMA-560 or LN-308 supernatants, same concentrations, FIG. 1B) is on record as “nullified”.
